The target in this assay is α-glucosidase. Put plainly: pNPG hydrolysis absorbance assay at […] nm, pH […] °C. It counts as biochemical.

Broadly, the IC50 is the concentration at which inhibition is half-maximal. The low end stands for greater potency, the high end for weaker potency. Compound `COc1cc2c(cc1O)CCN[C@]21CS[C@@H]2c3c(OC(C)=O)c(C)c4c(c3[C@H](COC1=O)N1[C@@H]2[C@H]2c3c(cc(C)c(OC)c3O)C[C@@H]([C@@H]1O)N2C)OCO4` [Trabectedin] gave an IC50 of 1.26 ± 0.7 µM.

The values are drawn from article PMC10145898, “Drug Repurposing of FDA Compounds against α-Glucosidase for the Treatment of Type 2 Diabetes: Insights from Molecular Docking and Molecular Dynamics Simulations” (Pharmaceuticals, 2023).
